According to patent publication US20210134398A1, “Combinatorial Chemistry Computational System and Enhanced Selection Method” (Southern Methodist University, priority 2019, published 2021):
“Also recorded” adds a separate entry of the source. Read-outs that look alike come from different tables or passages of the source.

Key:
[1] = target: T1, Cysteineless Mouse MDR3 P-glycoprotein (Mus musculus, UniProt P21447, C1070A/C1121A/C1223A/C133A/C427A/C638A/C669A/C713A/C952A); assay: ATPase activity assay (basal and verapamil-stimulated), purified P-gp in mixed micelles; type: biochemical; details: for Effect on stimulated ATPase / Stimulated ATPase: in the presence of verapamil; for Stimulated ATPase / Basal ATPase: ± standard deviation
T1 construct: made in house; host or cells: Pichia pastoris
T1 sequence (P21447 whole entry C133A/C427A/C638A/C669A/C713A/C952A/C1070A/C1121A/C1223A): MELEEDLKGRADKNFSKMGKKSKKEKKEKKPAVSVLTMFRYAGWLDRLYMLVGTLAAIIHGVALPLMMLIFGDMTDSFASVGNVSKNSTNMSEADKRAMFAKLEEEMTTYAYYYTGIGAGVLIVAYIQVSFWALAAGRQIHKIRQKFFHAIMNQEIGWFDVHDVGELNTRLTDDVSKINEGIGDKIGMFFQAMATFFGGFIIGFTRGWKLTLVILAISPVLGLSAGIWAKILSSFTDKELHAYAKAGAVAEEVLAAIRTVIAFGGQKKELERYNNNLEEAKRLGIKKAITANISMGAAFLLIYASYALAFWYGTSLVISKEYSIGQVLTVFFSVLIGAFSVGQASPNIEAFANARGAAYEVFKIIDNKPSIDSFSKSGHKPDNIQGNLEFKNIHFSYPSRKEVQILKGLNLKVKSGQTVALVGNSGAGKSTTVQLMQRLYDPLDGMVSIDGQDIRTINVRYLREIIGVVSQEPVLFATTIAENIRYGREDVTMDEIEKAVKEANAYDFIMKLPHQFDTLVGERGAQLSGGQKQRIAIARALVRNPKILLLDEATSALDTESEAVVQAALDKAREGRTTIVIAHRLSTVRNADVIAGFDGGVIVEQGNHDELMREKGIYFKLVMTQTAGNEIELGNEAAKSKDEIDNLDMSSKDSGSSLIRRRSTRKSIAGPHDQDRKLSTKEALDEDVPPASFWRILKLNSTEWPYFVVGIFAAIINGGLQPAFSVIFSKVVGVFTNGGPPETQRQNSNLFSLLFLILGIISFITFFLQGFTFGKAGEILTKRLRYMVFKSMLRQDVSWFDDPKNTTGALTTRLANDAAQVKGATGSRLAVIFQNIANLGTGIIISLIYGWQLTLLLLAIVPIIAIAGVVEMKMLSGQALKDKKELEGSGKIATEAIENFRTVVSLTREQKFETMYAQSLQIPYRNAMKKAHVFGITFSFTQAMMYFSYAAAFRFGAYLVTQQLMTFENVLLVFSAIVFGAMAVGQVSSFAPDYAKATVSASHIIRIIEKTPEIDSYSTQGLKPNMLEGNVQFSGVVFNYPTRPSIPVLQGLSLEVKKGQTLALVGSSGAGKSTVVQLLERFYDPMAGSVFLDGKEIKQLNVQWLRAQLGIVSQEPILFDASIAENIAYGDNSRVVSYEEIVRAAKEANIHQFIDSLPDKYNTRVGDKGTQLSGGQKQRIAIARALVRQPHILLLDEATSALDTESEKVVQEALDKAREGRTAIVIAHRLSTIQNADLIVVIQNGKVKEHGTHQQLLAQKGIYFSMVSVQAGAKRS
Method: Evaluation of mode of inhibition of P-glycoprotein by Group 1 and Group 2 variants of compound 29. To assess the mode of inhibition of P-gp by the novel variants of P-gp inhibitor 29, ATP hydrolysis by P-gp was evaluated in the presence or absence of the variants. […] Murine P-gp (MDR3) expressed in Pichia pastoris that had all naturally occurring cysteines replaced with alanine, was used^45, 46. It is widely assumed that the ATP hydrolytic rate of P-gp is stimulated in the presence of transport substrates when compared to ATP hydrolysis in the absence of transport substrates. Assays comparing these rates can therefore be useful not only in identifying inhibitors of P-gp catalyzed ATP hydrolysis, but also to potentially infer whether a compound might be a transport substrate if basal ATPase rates are stimulated by the addition of a compound.
P-glycoprotein Purification. Cysteine-less MDR3 and the human normal MDR1 P-glycoprotein was recombinantly expressed in the yeast Pichia pastoris essentially as in^45, 46 and used for assaying ATP hydrolysis and ATP binding to the protein in the presence of the 29-variants. Purification of the protein was performed as described^49 with small modifications resulting in highly enriched P-gp in mixed micelles containing dodecyl maltoside (DDM) and lysophosphatidyl choline^26.
ATPase Activity Assays. ATP hydrolysis activity was measured using a coupled enzyme assay^72 as modified in reference^26.

[2] = test system: P-gp overexpressing prostate cancer cell line, DU145TXR; assay: MTT cell viability assay, resensitization to paclitaxel; type: cell-based, human; details: for Fold vs PTX (fold increased sensitivity): vs paclitaxel alone; for Resensitization of DU145TXR to paclitaxel / MDR reversal (in words): 3 to 10 μM inhibitor; for Fold vs PTX + 29: vs paclitaxel + parental compound 29
From the text: The Group 1 ChemGen/docking routine produced variants of P-gp inhibitor 29 resensitize a multidrug resistant, P-gp overexpressing prostate cancer cell line to paclitaxel. The mitochondrial reduction potential of cells is often used as an indicator for cell viability using MTT assays^4. Using these assays it was observed that the five Group 1 derivatives of 29 predicted through the ChemGen/docking routine and synthesized here, 216, 227, 231, 541 and 551, re-sensitized the P-gp overexpressing prostate cancer cell line, DU145TXR^33, to the chemotherapeutic, paclitaxel (FIG. 12, showing results of assays at concentrations of 3 μM, 5 μM, 7 μM, and 10 μM).
Cytotoxicity of the chemotherapeutic, paclitaxel (PTX) to P-gp overexpressing prostate cancer cells, DU145TXR, was determined in the absence and presence of the ChemGen designed 29-variants, 216, 227, 231, 541 and 551. For each experimental compound IC50 values of PTX alone or in the presence of inhibitors, fold improvement of PTX sensitivity in the presence of inhibitor, and fold improvement of PTX sensitivity by variants compared to parental compound 29 are given.
Effects of Group 2 variants on the paclitaxel sensitivity of P-glycoprotein overexpressing prostate cancer cells, DU145TXR. MTT assays were again used to assess the efficacy of the new structural 29-variants on sensitizing the chemotherapy-resistant prostate cancer cell line, DU145TXR, to paclitaxel, at concentrations of 3 μM, 5 μM, 7 μM, and 10 μM as shown in FIG. 15 and Table 4.
MTT cell viability assay. Cells were trypsinized from monolayers and seeded with 3000 cells in 150 μL of complete medium in a 96 well plate. After 24 hours, cells were treated for 48 hours with paclitaxel (Acros Organics, NJ) and/or P-gp inhibitory compounds dissolved in DMSO, or DMSO controls. All additions were diluted into complete medium. After 48 hours of treatment, MTT assays were performed as described^41 using 5 mg/mL of MTT (Acros Organics, NJ) solution prepared in PBS (137 mM NaCl, 2.7 mM KCl, 10 mM Na2HPO4, 1.8 mM KH2PO4, pH 7.4). After 4 hours of incubation with MTT, the media was removed and the formazan crystals were dissolved in 100 μL of DMSO. The absorbance at 570 nm was then measured using a BioTek Cytation 5 imaging multi-mode reader (Bio-Tek, Winooski, Vt.). Percent viability was calculated using DMSO treated cells as representative for 100% viability, according to Equation 1. Background absorbance was determined using MTT and complete medium without cells and subtracted from all the test values. Equation 1:
The results were plotted as the mean with standard deviation (SD) of eight replicates per concentration from at least two independent experiments with n=8. The graphical representations and IC50 values were determined using four parameter variable slope non-linear regression, using the following equation: Y=bottom+(top-bottom)/(1+10^((log IC50−X)*Hill Slope) (GraphPad Prism™, La Jolla Calif., USA, Version 6.05). The reported “fold sensitization” was calculated as follows, per Equation 2: […]

[3] = target: P-gp (P-gp over-expressing cell line, DU145TXR) (Homo sapiens, UniProt P08183); assay: Cellular accumulation of experimental compounds by LC-MS/MS with and without tariquidar
Sequence of P-gp (P-gp over-expressing cell line, DU145TXR) (P08183 whole entry): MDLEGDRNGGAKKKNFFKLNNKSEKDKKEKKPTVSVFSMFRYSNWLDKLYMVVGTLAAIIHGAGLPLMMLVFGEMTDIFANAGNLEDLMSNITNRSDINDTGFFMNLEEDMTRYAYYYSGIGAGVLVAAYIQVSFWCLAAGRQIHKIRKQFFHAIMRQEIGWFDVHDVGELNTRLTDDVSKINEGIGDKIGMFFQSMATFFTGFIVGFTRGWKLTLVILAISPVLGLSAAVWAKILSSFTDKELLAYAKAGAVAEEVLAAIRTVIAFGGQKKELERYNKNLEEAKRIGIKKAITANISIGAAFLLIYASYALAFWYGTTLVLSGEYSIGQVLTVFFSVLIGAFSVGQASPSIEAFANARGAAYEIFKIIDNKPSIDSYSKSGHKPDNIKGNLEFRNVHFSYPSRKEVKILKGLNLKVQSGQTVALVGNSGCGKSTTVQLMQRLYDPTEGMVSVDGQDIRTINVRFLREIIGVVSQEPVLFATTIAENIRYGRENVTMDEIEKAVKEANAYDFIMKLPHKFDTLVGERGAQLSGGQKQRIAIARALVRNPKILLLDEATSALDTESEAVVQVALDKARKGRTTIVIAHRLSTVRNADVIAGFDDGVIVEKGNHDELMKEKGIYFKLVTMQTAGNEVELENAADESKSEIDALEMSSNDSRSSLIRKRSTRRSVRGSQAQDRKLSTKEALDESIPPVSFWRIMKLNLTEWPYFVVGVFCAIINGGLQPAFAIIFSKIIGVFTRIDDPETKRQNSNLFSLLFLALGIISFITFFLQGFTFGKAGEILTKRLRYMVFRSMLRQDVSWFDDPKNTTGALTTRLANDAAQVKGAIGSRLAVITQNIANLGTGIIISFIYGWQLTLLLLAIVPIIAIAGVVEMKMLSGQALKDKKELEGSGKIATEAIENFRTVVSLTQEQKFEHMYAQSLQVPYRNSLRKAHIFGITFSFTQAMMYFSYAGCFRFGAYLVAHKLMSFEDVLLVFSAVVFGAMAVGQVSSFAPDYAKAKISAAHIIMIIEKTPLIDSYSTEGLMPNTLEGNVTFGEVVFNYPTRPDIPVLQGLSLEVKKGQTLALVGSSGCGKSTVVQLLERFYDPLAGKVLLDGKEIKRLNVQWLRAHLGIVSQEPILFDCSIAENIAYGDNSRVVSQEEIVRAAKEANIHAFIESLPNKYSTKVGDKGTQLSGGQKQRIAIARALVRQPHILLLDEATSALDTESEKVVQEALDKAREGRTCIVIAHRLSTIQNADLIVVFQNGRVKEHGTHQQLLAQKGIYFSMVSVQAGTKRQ
Method: Stimulation of basal ATPase by 29-variants was used as an indicator that a compound may be a P-gp transport substrate. Effects on stimulated P-gp ATPase activity indicated whether a compound directly interfered with ATP usage by the protein (***, p<0.001; **, p<0.01; *, p<0.1; NS, not significant). Quantitative cellular accumulation of 29-variants was performed using LC-MS/MS and is presented as a ratio of the cellular amounts of 29-variants in the presence of P-gp inhibitor, tariquidar, divided by amounts accumulated in its absence. […] Binding of an ATP analog, SL-ATP, to P-gp was used to determine whether ATP binding to P-gp was affected by the 29-variants. Values +/−standard deviations are shown for at least three different P-gp preparations and three independent SL-ATP titration experiments. The values for SL-ATP binding in the presence of 29 were taken directly from Brewer et al. (2014).
Intracellular accumulation of compound 29 variants. Cell accumulation assays for each of the 29 variants were performed as in reference^28 to more directly assess whether the compounds were indeed transport substrates for P-gp.
Cellular Accumulation Assays for Experimental P-gp Inhibitors. Cells used (DU145TXR), cell culturing, cell exposure to compounds, cellular handling and extractions were performed as described in^28. LC-MS/MS methods were performed as described in^71 and as modified in^28.

With Cc1cc(C)c(-c2cc(NC(=O)CSc3cccc(NC(=O)c4cncc(Br)c4)c3)n(-c3ccccc3)n2)cc1C [29-551, 5-bromo-N-(3-((2-oxo-2-((1-phenyl-3-(2,4,5-trimethylphenyl)-1H-pyrazol-5-yl)amino)ethyl)thio)phenyl)nicotinamide] the “Effect on stimulated ATPase” value ([1]; listed as 551) was “inhibited activity similar to parental compound 29; also recorded: inhibited verapamil-stimulated ATPase activity”, the “Effect on stimulated ATPase” value ([1]; listed as SMU29-551) was “inhibitor” and the “Stimulated ATPase” value [1] was 62 ± 5 % of DMSO. For the same molecule, the “Effect on basal ATPase” value ([1]; no added transport substrate, listed as 551) was “stimulated basal ATPase activity”, the “Effect on basal ATPase” value ([1]; no added transport substrate, listed as SMU29-551) was “stimulator” and the “Basal ATPase” value ([1]; no added transport substrate) was 150 ± 6 % of DMSO. The “Fold vs PTX (fold increased sensitivity)” value ([2]; 3 μM inhibitor) was 38 fold, the “Resensitization of DU145TXR to paclitaxel / MDR reversal (in words)” value ([2]; listed as 551) was “re-sensitized; also recorded: more effective than 29 at all concentrations tested” and the “Cellular accumulation: ratio of plus Tariquidar over no Tariquidar” value ([3]; human) was 1.1. The “Transport substrate for P-gp” value ([3]; human, not told) was “none of the Group 1 compounds functions as a transport substrate of P-gp”.
Cc1cc(C)c(-c2cc(NC(=O)CSCC(=O)NC(c3ccccc3)c3ccccc3)n(-c3ccccc3)n2)cc1C [29-280, N-(diphenylmethyl)-2-[({[1-phenyl-3-(2,4,5-trimethylphenyl)-1H-pyrazol-5-yl]carbamoyl)methyl}sulfanyl]acetamide] was tested, and the “Effect on stimulated ATPase” value ([1]; listed as 280) was “only a slight stimulation”, the “Effect on stimulated ATPase” value ([1]; listed as SMU29-280) was “stimulator” and the “Stimulated ATPase” value [1] was 116 ± 4 % of DMSO. The “Effect on basal ATPase” value ([1]; no added transport substrate, listed as SMU29-280) was “stimulator”, the “Basal ATPase” value ([1]; no added transport substrate) was 148 ± 4 % of DMSO and the “Cellular accumulation: ratio of plus Tariquidar over no Tariquidar” value ([3]; human) was 1.2.
“2-{[2-(9H-flouoren-2-yl)-2-oxoethyl]}-N-[1-phenyl-3-(2,4,5-trimethylphenyl0-1H-pyrazol-5-yl]acetamide [29-216]” was tested, and the “Effect on stimulated ATPase” value ([1]; listed as 216) was “did not affect; also recorded: little effect”, the “Effect on stimulated ATPase” value ([1]; listed as SMU29-216) was “none” and the “Stimulated ATPase” value [1] was 108 ± 2 % of DMSO. The “Effect on basal ATPase” value ([1]; no added transport substrate, listed as 216) was “did not significantly affect; also recorded: did not activate”, the “Effect on basal ATPase” value ([1]; no added transport substrate, listed as SMU29-216) was “none” and the “Basal ATPase” value ([1]; no added transport substrate) was 105 ± 7 % of DMSO. The “Fold vs PTX + 29” value ([2]; 5 μM inhibitor) was 1.3 fold, the “Fold vs PTX (fold increased sensitivity)” value ([2]; 5 μM inhibitor) was 14 fold and the “Fold vs PTX + 29” value ([2]; 7 μM inhibitor) was 1 fold. For the same molecule, the “Fold vs PTX (fold increased sensitivity)” value ([2]; 7 μM inhibitor) was 34 fold, the “Fold vs PTX + 29” value ([2]; 10 μM inhibitor) was 0.4 fold and the “Fold vs PTX (fold increased sensitivity)” value ([2]; 10 μM inhibitor) was 37 fold. The “Cellular accumulation: ratio of plus Tariquidar over no Tariquidar” value [3] was 1.1.
Cc1cc(C)c(-c2cc(NC(=O)CSc3nnc(C4CC4)[nH]3)n(-c3ccccc3)n2)cc1C [compound 29, reference compound] was tested, and the “Effect on stimulated ATPase” value [1] was “inhibitor”, the “Stimulated ATPase” value [1] was 49 ± 2 % of DMSO and the “Effect on basal ATPase” value ([1]; no added transport substrate) was “none”. The “Basal ATPase” value ([1]; no added transport substrate) was 95 ± 11 % of DMSO, the “Fold vs PTX + 29” value ([2]; 3 μM inhibitor) was 1 fold and the “Fold vs PTX (fold increased sensitivity)” value ([2]; 3 μM inhibitor) was 3 fold. For the same molecule, the “Fold vs PTX + 29” value ([2]; 5 μM inhibitor) was 1 fold, the “Fold vs PTX (fold increased sensitivity)” value ([2]; 5 μM inhibitor) was 11 fold and the “Fold vs PTX + 29” value ([2]; 7 μM inhibitor) was 1 fold. For the same molecule, the “Fold vs PTX (fold increased sensitivity)” value ([2]; 7 μM inhibitor) was 36 fold, the “Fold vs PTX + 29” value ([2]; 10 μM inhibitor) was 1 fold and the “Fold vs PTX (fold increased sensitivity)” value ([2]; 10 μM inhibitor) was 101 fold. The “Cellular accumulation: ratio of plus Tariquidar over no Tariquidar” value [3] was 1.0 and the “Intracellular accumulation in absence vs presence of tariquidar (in words)” value [3] was “no significant difference”.
For Cc1cc(C)c(-c2cc(NC(=O)CSCC(=O)NCc3ccc(F)cc3)n(-c3ccccc3)n2)cc1C [29-286], the “Effect on stimulated ATPase” value ([1]; listed as 286) was “no significant effect; also recorded: little effect”, the “Effect on stimulated ATPase” value ([1]; listed as SMU29-286) was “none” and the “Stimulated ATPase” value [1] was 98 ± 2 % of DMSO. For the same molecule, the “Effect on basal ATPase” value ([1]; no added transport substrate, listed as 286) was “only marginally or with no statistical significance”, the “Effect on basal ATPase” value ([1]; no added transport substrate, listed as SMU29-286) was “none” and the “Basal ATPase” value ([1]; no added transport substrate) was 143 ± 32 % of DMSO. For the same molecule, the “Resensitization of DU145TXR to paclitaxel / MDR reversal (in words)” value ([2]; listed as 286) was “little effect”, the “Cellular accumulation: ratio of plus Tariquidar over no Tariquidar” value [3] was 1.3 and the “Intracellular accumulation in absence vs presence of tariquidar (in words)” value [3] was “more modest, but statistically significant increases”.
COc1cc(NC(=O)CSCC(=O)Nc2cc(-c3cc(C)c(C)cc3C)nn2-c2ccccc2)cc(OC)c1OC [29-238, N-[1-phenyl-3-(2,4,5-trimethylphenyl)-1H-pyrazol-5-yl]-2-({[(3,4,5-trimethoxyphenyl)carbamoyl]methyl}sulfanyl)acetamide] was tested, and the “Effect on stimulated ATPase” value ([1]; listed as 238) was “about two-fold”, the “Effect on stimulated ATPase” value ([1]; listed as SMU29-238) was “stimulator” and the “Stimulated ATPase” value [1] was 194 ± 22 % of DMSO. The “Effect on basal ATPase” value ([1]; no added transport substrate) was “stimulator”, the “Stimulation of basal ATPase” value ([1]; no added transport substrate) was about 10 fold and the “Basal ATPase” value ([1]; no added transport substrate) was 1143 ± 46 % of DMSO. For the same molecule, the “Fold vs PTX + 29” value ([2]; 3 μM inhibitor) was 3.4 fold, the “Fold vs PTX + 29” value ([2]; 5 μM inhibitor) was “around 100 fold” and the “Fold vs PTX (fold increased sensitivity)” value ([2]; 5 μM inhibitor) was “about a thousand-fold”. The “Fold vs PTX + 29” value ([2]; 7 μM inhibitor) was “around 100 fold”, the “Fold vs PTX + 29” value ([2]; 10 μM inhibitor) was 300 fold and the “Resensitization of DU145TXR to paclitaxel / MDR reversal (in words)” value ([2]; listed as 238) was “increased paclitaxel toxicities to the greatest extents; also recorded: vastly outperformed compounds 278, 280 and 286; also recorded: strongest reversal of MDR”. For the same molecule, the “Intracellular accumulation in absence vs presence of tariquidar (in words)” value [3] was “very large and significant increase” and the “Cellular accumulation: ratio of plus Tariquidar over no Tariquidar” value ([3]; human) was 1.9.
